# According to PMC11335985, “Radiosynthesis and preclinical evaluation of a ^68Ga-labeled tetrahydroisoquinoline-based ligand for PET imaging of C-X-C chemokine receptor type 4 in an animal model of glioblastoma” (EJNMMI Radiopharmacy and Chemistry, 2024):
# Target: T1, CXCR4 (Homo sapiens, UniProt P61073)
# T1 construct: full-length endogenous receptor on intact Jurkat T cells, untagged
# Assay: inhibition of CXCL12-AF647 binding to intact Jurkat cells, flow cytometry
# Format: cell-based
# Conditions: competition with 2.9 nM CXCL12-AF647; HBSS, 20 mM HEPES, 0.2% BSA, pH 7.4, RT; 15 min preincubation, 30 min with tracer; n = 3; chelator without gallium
# From the text: inhibition of CXCL12-AF647 binding to intact Jurkat cells, flow cytometry on CXCR4
# T1 sequence (P61073 whole entry): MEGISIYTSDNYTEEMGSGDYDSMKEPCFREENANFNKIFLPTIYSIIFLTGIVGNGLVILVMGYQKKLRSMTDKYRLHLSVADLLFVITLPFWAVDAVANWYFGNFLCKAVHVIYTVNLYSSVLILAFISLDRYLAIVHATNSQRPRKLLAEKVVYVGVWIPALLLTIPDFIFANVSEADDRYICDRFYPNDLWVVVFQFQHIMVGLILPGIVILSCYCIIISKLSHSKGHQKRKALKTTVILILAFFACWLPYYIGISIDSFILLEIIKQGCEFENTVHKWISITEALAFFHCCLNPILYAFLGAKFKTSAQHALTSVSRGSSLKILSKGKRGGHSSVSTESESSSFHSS
compound,measurement,value
O=C(O)CN1CCN(CC(=O)O)CCN(C(CCC(=O)NCc2ccc(NC(=S)NCCCCN(C[C@H]3Cc4ccccc4CN3)[C@H]3CCCc4cccnc43)cc2)C(=O)O)CCN(CC(=O)O)CC1 (stereo partly shown) [TD-01],IC50,36.5 ± 1.4 nM
